Data taken from publication PMC7968037 (RSC Advances, 2021).
Read-outs that look alike come from different tables or passages of the source.

Experiments:
[1] = test system: MCF-7 (ER+/PR+/HER2−) breast cancer cells; assay: cells; type: cell-based; conditions: for IC50: Homo sapiens, read-out: Growth inhibition [log(IC50 [μM]) ± SEM] (converted); for Early inhibition of growth compared to vehicle-treated cells: MCF-7, 24 h, tested 0.32–320 μM, Fig. 4A
in vitro [2] = conditions: human, Cytotoxicity [log(EC50 [μM]) ± SEM], cellular necrosis, SK-BR-3, 72 h exposure, 0.32–320 μM; values are logarithms
[3] = test system: SK-BR-3 (ER−/PR−/HER2+) breast cancer cells; assay: cells; type: cell-based; conditions: Homo sapiens, read-out: Growth inhibition [log(IC50 [μM]) ± SEM] (converted)
in vitro [4] = conditions: human, Cytotoxicity [log(EC50 [μM]) ± SEM], cellular necrosis, MCF-7, 72 h exposure, 0.32–320 μM; values are logarithms
[5] = test system: benign MCF-10A breast cells; conditions: tested 0.32–320 μM; for Concentrations that exerted significant toxicity compared to vehicle: 72 h, p ≤ 0.05, Fig. 5D′; for Concentrations that exerted significant cytotoxicity compared to vehicle: 24 h, p ≤ 0.05, Fig. 5D
in vitro [6] = conditions: human, Cytotoxicity [log(EC50 [μM]) ± SEM], cellular necrosis, MDA-MB-231, 72 h exposure, 0.32–320 μM; values are logarithms
in vitro [7] = conditions: human, Cytotoxicity [log(EC50 [μM]) ± SEM], cellular necrosis, MCF-10A, 72 h exposure, 0.32–320 μM; values are logarithms
[8] = test system: MDA-MB-231 (triple negative) breast cancer cells; assay: cells; type: cell-based; conditions: Homo sapiens, read-out: Growth inhibition [log(IC50 [μM]) ± SEM] (converted)
[9] = test system: benign MCF-10A breast cells; assay: cells; type: cell-based; conditions: for Change of cell growth compared to vehicle-treated cells: tested 0.32–320 μM; for IC50: Homo sapiens, read-out: Growth inhibition [log(IC50 [μM]) ± SEM] (converted)

Row | Structure (SMILES) | IC50 ([1]; MCF7, 24 h) | IC50 ([1]; MCF7, 72 h) | EC50 (in vitro [2]) | IC50 ([3]; SK-BR-3, 24 h) | IC50 ([3]; SK-BR-3, 72 h) | EC50 (in vitro [4]) | Concentrations that exerted significant toxicity compared to vehicle [5] | EC50 (in vitro [6]) | EC50 (in vitro [7]) | IC50 ([8]; MDA-MB-231, 24 h) | IC50 ([8]; MDA-MB-231, 72 h) | Change of cell growth compared to vehicle-treated cells ([9]; 24 h, Fig. 4D) | Change of cell growth compared to vehicle-treated cells ([9]; 72 h, Fig. 4D′) | IC50 ([9]; 24 h) | IC50 ([9]; 72 h) | Concentrations that exerted significant cytotoxicity compared to vehicle [5] | Early inhibition of growth compared to vehicle-treated cells [1]
1 | C=C(C[C@H](N)C(=O)O)C(N)=O [Compound 1, (S)-2-Amino-4-carbamoylpent-4-enoic acid] | > 320 µM | > 320 µM | 2.04 µM | 7.94 µM | 11.2 µM | 2.95 µM | 3.2 µM | > 316 µM | > 316 µM | 141 µM | > 320 µM | significant increases | significant increases | > 316 µM | > 316 µM | – | –
2 | C=C(C[C@H](N)C(=O)O)C(=O)Nc1ccccc1 [Compound 3, (S)-2-Amino-4-(phenylcarbamoyl)pent-4-enoic acid] | > 320 µM | 251 µM | > 316 µM | 37.2 µM | 1.66 µM | 2.04 µM | – | > 316 µM | > 316 µM | > 320 µM | > 320 µM | – | significant increases | > 316 µM | > 316 µM | – | –
3 | C=C(C[C@H](N)C(=O)O)C(=O)NCc1ccccc1 [Compound 4, (S)-2-Amino-4-(benzylcarbamoyl)pent-4-enoic acid] | > 320 µM | 195 µM | > 316 µM | 74.1 µM | 0.562 µM | 219 µM | – | > 316 µM | > 316 µM | > 320 µM | > 320 µM | – | – | > 316 µM | > 316 µM | – | –
4 | C=C(C[C@H](N)C(=O)O)C(=O)NCc1ccc(F)cc1 [Compound 5, (S)-2-Amino-4-((4-fluorobenzyl)carbamoyl)pent-4-enoic acid] | > 320 µM | 85.1 µM | 0.389 µM | 3.89 µM | 4.47 µM | 55 µM | 320 µM | 263 µM | > 316 µM | > 320 µM | > 320 µM | significant increases | significant increases | > 316 µM | > 316 µM | 320 µM | –
5 | C=C(C[C@H](N)C(=O)O)C(=O)NCc1ccc([N+](=O)[O-])cc1 [Compound 6, (S)-2-Amino-4-((4-nitrobenzyl)carbamoyl)pent-4-enoic acid] | > 320 µM | > 320 µM | 0.437 µM | 12.9 µM | 3.16 µM | 20.4 µM | – | 269 µM | > 316 µM | 219 µM | > 320 µM | significant increases | – | > 316 µM | > 316 µM | – | –
6 | C=C(C[C@H](N)C(=O)O)C(=O)NC1CC1 [Compound 7, (S)-2-Amino-4-(cyclopropylcarbamoyl)pent-4-enoic acid] | 229 µM | > 320 µM | > 316 µM | 316 µM | 0.575 µM | > 316 µM | – | > 316 µM | > 316 µM | > 320 µM | > 320 µM | – | significant increases | > 316 µM | > 316 µM | – | exerted early inhibition
7 | C=C(C[C@H](N)C(=O)O)C(=O)N1CCCCC1 [Compound 8, (S)-2-Amino-4-(piperidine-1-carbonyl)pent-4-enoic acid] | > 320 µM | > 320 µM | > 316 µM | 135 µM | 0.617 µM | 200 µM | – | > 316 µM | > 316 µM | > 320 µM | > 320 µM | – | significant increases | > 316 µM | > 316 µM | – | –
8 | C=C(C[C@H](N)C(=O)O)C(=O)Nc1ccc(F)cc1 [Compound 9, (S)-2-Amino-4-((4-fluorophenyl)carbamoyl) pent-4-enoic acid] | > 320 µM | 75.9 µM | 0.0603 µM | 11.5 µM | 4.79 µM | 2.29 µM | – | > 316 µM | > 316 µM | > 320 µM | > 320 µM | – | – | > 316 µM | > 316 µM | – | –
9 | C=C(C[C@H](N)C(=O)O)C(=O)Nc1ccc(Cl)cc1 [Compound 10, (S)-2-Amino-4-((4-chlorophenyl)carbamoyl)pent-4-enoic acid] | > 320 µM | 209 µM | > 316 µM | 79.4 µM | 3.98 µM | 93.3 µM | 100 µM | > 316 µM | > 316 µM | > 320 µM | > 320 µM | – | significant increases | > 316 µM | > 316 µM | – | exerted early inhibition
10 | O=C(c1cc(Cc2n[nH]c(=O)c3ccccc23)ccc1F)N1CCN(C(=O)C2CC2)CC1 [Olaparib, reference compound] | > 316 µM | 107 µM | 0.0603 µM | 1.62 µM | 1.05 µM | 26.3 µM | 320 µM | 97.7 µM | > 316 µM | 162 µM | 155 µM | – | – | > 316 µM | > 316 µM | 320 µM | –
11 | CC/C(=C(\c1ccccc1)c1ccc(OCCN(C)C)cc1)c1ccccc1 [Tamoxifen, reference compound] | – | – | 0.331 µM | – | – | – | – | 30.9 µM | > 316 µM | – | – | – | – | – | – | – | –
